{"source": "patent US20240374567A1", "about": "“Combination Treatments for Cancer Patients and Methods for Identifying Same” (Scandion Oncology A/S, priority 2021, published 2024)", "test_system": "UGT1A1", "assay": "Clinical study of SCO-101 with FOLFIRI: serum bilirubin and bilirubin index after SCO-101", "format": "in vivo, human", "protocol": "The term “bilirubin index” as used herein or “bilirubin index score” which are used interchangeably, refer to a patient's rate of bilirubin normalization subsequent to administration of an UGT1A1 inhibitor to the patient. Herein, the bilirubin index is determined subsequent to administration of an UGT1A1 inhibitor to the patient for a number of consecutive days, such as 1, 2, 3, 4, 5, or 6, preferably 6 days. Based on 6 consecutive days of administration with an UGT1A1 inhibitor, the bilirubin index is determined as the bilirubin serum or plasma concentration (unconjugated or total bilirubin) on day 12 divided with the bilirubin serum or plasma concentration on day 7 and thus is an indicator of how much the patients' UGT1A1 activity has normalized following cessation of SCO-101 treatment and can be determined using bilirubin as a surrogate marker.\nBilirubin: Blood sampling for analysis of bilirubin (total, unconjugated and conjugated) were withdrawn at Screening (up to 4 weeks prior start of treatment), day 5, day 7 and day 12 in the first treatment cycle.\nLikely, the increase in unconjugated bilirubin is mediated through inhibition of the enzyme UDP-glucuronosyltransferase 1 family, polypeptide A1 (UGT1A1). UGT1A1 is an enzyme responsible for conjugation of poorly soluble endo- and xenobiotics making them more soluble and possible to excrete. UGT1A1 is the primary enzyme responsible for conjugation of bilirubin and metabolism of Irinotecan's active metabolite SN-38. The bilirubin index score is the bilirubin serum concentration (unconjugated or total bilirubin) on day 12 divided with the bilirubin serum concentration on day 7 and thus is an indicator of how much the patients' UGT1A1 activity has normalized following cessation of SCO-101 treatment, and can be determined using bilirubin as a surrogate marker. In FIG. 2, an overview of the bilirubin index for all patients is included. The mean bilirubin index score for the six RAS wild type patients is approximately 0.15 (lowest 0.04, highest 0.28) whereas the mean score for the six RAS mutated patients is 0.59 (lowest 0.25, highest 0.76). Thus, there is a strong indication that the bilirubin index can predict a patient's tolerability to treatment."}
{"smiles": "O=C(Nc1cc(C(F)(F)F)cc(C(F)(F)F)c1)Nc1ccc(Br)cc1-c1nnn[nH]1", "note": "[SCO-101]", "values": [{"measurement": "reversibility of bilirubin increase / UGT1A1 inhibition", "setting": "after discontinuation of SCO-101 treatment", "value": "completely reversible"}, {"measurement": "bilirubin index (bilirubin serum concentration on day 12 divided with day 7)", "setting": "patients with RAS mutation, cohort 1 (150 mg SCO-101), cycle 1", "value": "above 0.4"}, {"measurement": "effect on unconjugated bilirubin serum concentration", "setting": "patients, SCO-101 days 1 to 6", "value": "specific and dose dependent increase"}, {"measurement": "highest bilirubin index score", "setting": "six RAS mutated patients", "value": 0.76}, {"measurement": "lowest bilirubin index score", "setting": "six RAS mutated patients", "value": 0.25}, {"measurement": "mean bilirubin index score", "setting": "six RAS mutated patients", "value": 0.59}, {"measurement": "highest bilirubin index score", "setting": "six RAS wild type patients", "value": 0.28}, {"measurement": "lowest bilirubin index score", "setting": "six RAS wild type patients", "value": 0.04}, {"measurement": "mean bilirubin index score", "setting": "six RAS wild type patients", "value": "approximately 0.15"}]}
